Values of other authors in patent US20120211706A1, “POLYDENTATE LIGAND METAL COMPLEX” (SUMITOMO CHEMICAL COMPANY, LIMITED, priority 2009, published 2012).
Counter-ions that a name gives are not always drawn.

Settings: 1N aqueous sulfuric acid solution

emission quantum yield of standard sample: 55%
SMILES: C=C[C@H]1C[N@@]2CC[C@H]1C[C@H]2[C@H](O)c1ccnc2ccc(OC)cc12 [quinine sulfate]
